The values below come from US20090069301A1, “Acridine and Quinoline Derivatives as Sirtuin Modulators” (Sirtris Pharmaceuticals, Inc., priority 2005, published 2009).

The first experiment has as its target T1, SIRT1 (Homo sapiens, UniProt Q96EB6).
T1 sequence (Q96EB6 1-747): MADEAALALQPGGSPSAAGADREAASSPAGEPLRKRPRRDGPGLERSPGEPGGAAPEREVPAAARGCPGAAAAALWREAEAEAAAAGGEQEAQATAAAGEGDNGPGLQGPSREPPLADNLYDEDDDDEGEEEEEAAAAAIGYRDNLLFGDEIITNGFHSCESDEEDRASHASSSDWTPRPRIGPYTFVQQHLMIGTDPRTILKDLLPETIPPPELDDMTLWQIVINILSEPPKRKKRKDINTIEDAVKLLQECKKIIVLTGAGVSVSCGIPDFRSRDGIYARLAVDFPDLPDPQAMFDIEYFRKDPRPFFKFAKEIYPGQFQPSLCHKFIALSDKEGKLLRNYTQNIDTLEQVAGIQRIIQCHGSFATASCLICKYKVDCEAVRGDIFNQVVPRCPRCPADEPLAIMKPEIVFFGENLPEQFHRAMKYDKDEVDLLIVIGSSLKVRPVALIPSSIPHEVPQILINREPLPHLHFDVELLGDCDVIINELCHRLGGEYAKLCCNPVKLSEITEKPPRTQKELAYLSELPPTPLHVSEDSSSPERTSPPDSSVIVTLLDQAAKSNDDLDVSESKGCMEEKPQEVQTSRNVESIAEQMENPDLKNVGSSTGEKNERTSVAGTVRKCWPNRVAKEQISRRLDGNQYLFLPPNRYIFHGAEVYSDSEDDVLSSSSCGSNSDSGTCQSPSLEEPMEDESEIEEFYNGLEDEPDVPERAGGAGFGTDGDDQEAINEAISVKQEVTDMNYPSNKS
The experiment is described as follows: Fluorescence polarization or mass spectrometry based assay to identify modulators of SIRT1 activity (p53-based peptide deacetylation).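 Also: recombinant His-tagged human SIRT1 deacetylating p53-derived acetylated peptide, detected by fluorescence polarization after trypsin cleavage, signal inversely tracking deacetylase activity, compared against activity without test compound.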 Type of experiment: biochemical. The following applies: activation of SIRT1, Table 4; read-out: ED50 (the source's name).
`CCCCc1ccc(NC(=O)c2c3c(nc4ccccc24)CCCC3)cc1` [Compound 160]: the EC50 is above 150 µM.

Take `c1ccc2c(c1)Oc1ccccc1C2n1nnc2ccccc21` [Compound 124]: the EC50 was above 150 µM.

On to `COc1cc(NC(=O)c2cc(-c3ccccc3)nc3ccccc23)cc(OC)c1OC` [Compound 27], for which the EC50 is above 150 µM.

For the compound `Cc1ccc2nc(-c3cccs3)cc(C(=O)N3CCCN(C)CC3)c2c1` [Compound 50], the EC50 is above 150 µM.

Take `Cc1ccc2nc(-c3ccco3)cc(C(=O)N3CCCCC3)c2c1` [Compound 30]: the EC50 was above 150 µM.

In the case of `COc1cc(C(=O)NN(C)c2c3ccccc3nc3ccccc23)cc(OC)c1OC` [Compound 154], the EC50 is above 150 µM.

Regarding `Cc1ccc2nc(-c3cccs3)cc(C(=O)NCCN3CCOCC3)c2c1` [Compound 6], the EC50 was below 50 µM.

For `CC(C)c1cc(NCc2c3ccccc3nc3ccccc23)n(-c2ccccc2)n1` [Compound 125], the EC50 is above 150 µM.

For `COc1cc(C(=O)NNc2c3c(nc4ccccc24)CCCC3)cc(OC)c1OC` [Compound 120], the EC50 was below 50 µM.

As to `O=C(Nc1ccc(N2CCCCC2)cc1)c1c2ccccc2nc2ccccc12` [Compound 128], the EC50 is above 150 µM.

For the compound `COc1cc(NCc2c3ccccc3nc3ccccc23)cc(OC)c1OC` [Compound 127], the EC50 is above 150 µM.

On to `CC(C)c1cc(Nc2c3ccccc3nc3ccccc23)n(-c2ccccc2)n1` [Compound 131], for which the EC50 is above 150 µM.

Take `Cc1ccc2nc(-c3ccco3)ccc2c1C(=O)NCCCN1CCCCC1` [Compound 20]: the EC50 was above 150 µM.

Take `CC(C)c1cc(NC(=O)c2c3ccccc3nc3ccccc23)n(-c2ccccc2)n1` [Compound 118]: the EC50 is below 50 µM.

Regarding `CCCOc1cccc(-c2cc(C(=O)NCCN3CCOCC3)c3ccccc3n2)c1` [Compound 4], the EC50 was above 150 µM.

As to `Cc1ccc2nc(-c3cccs3)ccc2c1C(=O)NCCCN1CCCCC1` [Compound 21], the EC50 is above 150 µM.

On to `Cc1ccc(-c2cccc(NC(=O)c3c4ccccc4nc4ccccc34)c2)cc1C` [Compound 130], for which the EC50 was above 150 µM.

For the compound `O=C(NCc1ccncc1)c1cc(-c2ccsc2)nc2ccccc12` [Compound 1], the EC50 is below 50 µM.

`Cc1ccc2nc(-c3cccs3)cc(C(=O)N(C)CCN(C)C)c2c1` [Compound 51]: the EC50 was above 150 µM.

For `Cc1ccc2nc(-c3ccccc3)cc(C(=O)NCCCN3CCCCC3)c2c1` [Compound 44], the EC50 is above 150 µM.

For `Cc1ccc2nc(-c3ccco3)cc(C(=O)NCCCN3CCOCC3)c2c1` [Compound 31], the EC50 was above 150 µM.

For `CS(=O)(=O)c1ccc(F)c(NC(=O)c2c3ccccc3nc3ccccc23)c1` [Compound 135], the EC50 was above 150 µM.

With `c1ccc(NNc2c3ccccc3nc3ccccc23)nc1` [Compound 121], the EC50 was below 50 µM.

Regarding `Cc1ccc2nc(-c3ccco3)cc(C(=O)NCCN3CCCCC3)c2c1` [Compound 34], the EC50 is above 150 µM.

For `CCN(CC)S(=O)(=O)c1ccc(N2CCOCC2)c(NC(=O)c2cc(-c3ccccn3)nc3ccccc23)c1` [Compound 9], the EC50 is above 150 µM.

Take `Cc1ccc2nc(-c3ccco3)cc(C(=O)NCCN(C)CCN(C)C)c2c1` [Compound 46]: the EC50 is above 150 µM.

As to `COc1cc(-c2nnc(-c3c4ccccc4nc4ccccc34)o2)cc(OC)c1OC` [Compound 137], the EC50 was below 50 µM.

With `Cc1ccc2nc(-c3ccco3)cc(C(=O)NCCCCN3CCN(C)CC3)c2c1` [Compound 17], the EC50 is above 150 µM.

For the compound `CN(C)c1ccc(C(=O)NNc2cc(-c3ccccc3)nc3ccccc23)cc1` [Compound 25], the EC50 was above 150 µM.

As to `O=C(Nc1ccc2c(c1)OCO2)Nc1c2ccccc2nc2ccccc12` [Compound 153], the EC50 was above 150 µM.

Consider `CN(NC(=O)c1ccncc1)c1c2ccccc2nc2ccccc12` [Compound 155], for which the EC50 was below 50 µM.

In the case of `O=C(NNC(=O)c1c2ccccc2nc2ccccc12)c1cc(F)cc(F)c1` [Compound 134], the EC50 was above 150 µM.

`O=C(NNc1cc(-c2ccccc2)nc2ccccc12)c1ccc(Cl)cc1` [Compound 23]: the EC50 is below 50 µM.

For `O=C(NNc1c2ccccc2nc2ccccc12)c1ccncc1` [Compound 10], the EC50 was below 50 µM.

`Cc1ccc2nc(-c3cccs3)cc(C(=O)N3CCCCC3)c2c1` [Compound 48]: the EC50 is above 150 µM.

As to `Cc1ccc2nc(-c3ccco3)cc(C(=O)N(C)CCN(C)C)c2c1` [Compound 32], the EC50 was above 150 µM.

With `O=C(Nc1ccccc1-n1cccc1)c1c2ccccc2nc2ccccc12` [Compound 129], the EC50 was above 150 µM.

For the compound `COc1cc(C(=O)NNc2c3ccccc3nc3ccccc23)cc(OC)c1OC` [Compound 3], the EC50 was below 50 µM.

Turning to `O=C(NNc1c2ccccc2nc2ccccc12)c1cccnc1` [Compound 11], the EC50 was below 50 µM.

For the compound `COc1cc(C(=O)NNc2cc(-c3ccccc3)nc3ccccc23)cc(OC)c1OC` [Compound 24], the EC50 is above 150 µM.

On to `COc1ccc(C(=O)NNc2cc(-c3ccccc3)nc3ccccc23)cc1OC` [Compound 26], for which the EC50 is below 50 µM.

Turning to `Cc1ccc2nc(-c3cccs3)cc(C(=O)NCCCN3CCOCC3)c2c1` [Compound 53], the EC50 was above 150 µM.

As for `Cc1ccc2nc(-c3cccs3)cc(C(=O)NCCCN3CCN(C)CC3)c2c1` [Compound 18], the EC50 is above 150 µM.

`Cc1ccc2nc(-c3cccs3)cc(C(=O)NCCN3CCCCC3)c2c1` [Compound 52]: the EC50 was above 150 µM.

For `Cc1ccc2nc(-c3ccco3)cc(C(=O)N3CCN(C)CC3)c2c1` [Compound 33], the EC50 was above 150 µM.

Turning to `Cc1ccc2nc(-c3ccccc3)cc(C(=O)NCCCN3CCN(C)CC3)c2c1` [Compound 45], the EC50 is above 150 µM.

As to `Cc1ccc2nc(-c3ccco3)cc(C(=O)NCCCN3CCN(C)CC3)c2c1` [Compound 47], the EC50 is above 150 µM.

For `Cc1ccc2nc(-c3ccco3)cc(C(=O)N3CCOCC3)c2c1` [Compound 35], the EC50 was above 150 µM.

For the compound `COc1ccccc1N1CCN(C(=O)c2c3ccccc3nc3ccccc23)CC1` [Compound 136], the EC50 is above 150 µM.

On to `O=C(Nc1c2c(nc3ccccc13)CCCC2)c1ccncc1` [Compound 157], for which the EC50 is above 150 µM.

Take `Cc1ccc2nc(-c3cccs3)cc(C(=O)N3CCN(C)CC3)c2c1` [Compound 49]: the EC50 is above 150 µM.

Consider `O=C(NNc1cc(-c2ccccc2)nc2ccccc12)c1ccccn1` [Compound 22], for which the EC50 is below 50 µM.

The same experiment, now with this note: inhibition of SIRT1, Table 5.
Usually IC50 stands for the midpoint of a concentration-inhibition curve. With `Cc1ccc2nc(-c3ccccc3)cc(C(=O)NCCCN3CCOCC3)c2c1` [Compound 169], the IC50 was above 150 µM.

`Cc1ccc2nc(-c3ccccc3)cc(C(=O)NCCCCCN3CCCCC3)c2c1` [Compound 171]: the IC50 is above 150 µM.

Regarding `Cc1ccc2nc(-c3ccccc3)cc(C(=O)NCCCCCN3CCOCC3)c2c1` [Compound 170], the IC50 was above 150 µM.

With `Cc1ccc2nc(-c3cccs3)cc(C(=O)N3CCOCC3)c2c1` [Compound 172], the IC50 is above 150 µM.
